According to ChEMBL document CHEMBL5338753, “Stapled Peptides as Direct Inhibitors of Nrf2-sMAF Transcription Factors” (J Med Chem, 2023):
Activity calls are given as the source filed them. No cut-off for these calls is given here. Positions of bridges follow the written chain, without caps; N, C: chain ends. Non-standard residues stand in square brackets, D forms with d. Residues, ends and D or L forms follow the SMILES beside them. R5 = C=CCCC[C@@](C)(N)C(=O)O

Tests used:
[1] = Stability of compound assessed as proteinase K (unknown origin) mediated compound degradation at 55 uM measured upto 24 hrs by LC/MS analysis; type: ADME; details: human
[2] = target: T1, Nuclear factor erythroid 2-related factor 2 (Homo sapiens) (UniProt Q16236); assay: Inhibition of human Nrf2 in HEK-293T cells expressing ARE-firefly luciferase and TK-Renilla luciferase at 50 to 100 uM incubated for 16 hrs by Dual-Luciferase reporter based luminometer analysis; type: cell-based; details: dose 50-100 µM
T1 sequence (whole entry): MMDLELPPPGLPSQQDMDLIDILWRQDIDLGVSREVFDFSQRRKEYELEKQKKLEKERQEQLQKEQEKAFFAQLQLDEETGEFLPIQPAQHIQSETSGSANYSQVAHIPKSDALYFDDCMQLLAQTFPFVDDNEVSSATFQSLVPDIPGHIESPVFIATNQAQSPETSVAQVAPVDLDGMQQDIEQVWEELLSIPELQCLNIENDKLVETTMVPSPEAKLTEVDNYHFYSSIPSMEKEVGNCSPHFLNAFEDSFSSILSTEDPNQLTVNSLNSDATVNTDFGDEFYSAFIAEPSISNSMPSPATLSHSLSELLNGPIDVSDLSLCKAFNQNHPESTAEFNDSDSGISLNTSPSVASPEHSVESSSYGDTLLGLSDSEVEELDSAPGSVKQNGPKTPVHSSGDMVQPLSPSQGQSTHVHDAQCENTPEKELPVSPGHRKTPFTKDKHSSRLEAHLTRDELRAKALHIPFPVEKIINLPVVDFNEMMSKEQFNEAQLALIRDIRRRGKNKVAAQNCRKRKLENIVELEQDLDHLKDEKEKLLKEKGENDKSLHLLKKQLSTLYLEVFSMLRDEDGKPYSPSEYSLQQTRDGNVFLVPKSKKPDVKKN

Homo sapiens = species on record: Homo sapiens; assay: Inhibition of human recombinant His-MBP-tagged Nrf2/recombinant His-tagged MafG heterodimer interaction with 5' FAM-labeled ARE at 0.2 uM preincubated for 5 mins with Nrf2 under shaking condition followed by MafG addition for 5 mins further incubated with ARE and measured after 10 mins by fluorescence polarization assay; details: time 20.0 min
A549 [3] = assay: Downregulation of TXN mRNA level in human A549 cells at 50 uM incubated for 72 hrs by qPCR assay; type: functional, cell-based
A549 [4] = assay: Downregulation of NQO2 mRNA level in human A549 cells at 50 uM incubated for 72 hrs by qPCR assay; type: functional, cell-based
A549 [5] = assay: Downregulation of GCLC mRNA level in human A549 cells at 50 uM incubated for 72 hrs by qPCR assay; type: functional, cell-based
A549 [6] = assay: Downregulation of TrxR1 protein expression in human A549 cells at 25 to 50 uM incubated for 72 hrs by Western blot analysis; type: functional, cell-based; details: dose 25-50 µM
A549 [7] = assay: Antiproliferative activity against human A549 cells assessed as cell death at 1.563 uM incubated for 72 hrs by MTT assay relative to control; type: functional
[8] = Hemolytic activity against human red blood cells at 100 uM relative to control; type: toxicity, cell-based, Erythrocyte; details: red blood cells (erythrocytes), read-out: Activity
A549 [9] = assay: Antiproliferative activity against human A549 cells assessed as cell death at 3.125 uM incubated for 72 hrs by MTT assay relative to control; type: functional
A549 [10] = assay: Antiproliferative activity against human A549 cells assessed as cell death at 100 uM incubated for 72 hrs by MTT assay relative to control; type: functional
A549 [11] = assay: Synergistic antiproliferative activity against human A549 cells assessed as cell death at 6.25 uM incubated for 72 hrs in presence of 6 uM cisplatin by MTT assay (reference value: 46%); type: functional
A549 [12] = assay: Synergistic antiproliferative activity against human A549 cells assessed as cell death at 12.5 uM incubated for 72 hrs in presence of 6 uM cisplatin by MTT assay (reference value: 46%); type: functional
A549 [13] = assay: Synergistic antiproliferative activity against human A549 cells assessed as cell death at 1.563 uM incubated for 72 hrs in presence of 12 uM cisplatin by MTT assay (reference value: 66%); type: functional
A549 [14] = assay: Synergistic antiproliferative activity against human A549 cells assessed as cell death at 3.125 uM incubated for 72 hrs in presence of 12 uM cisplatin by MTT assay (reference value: 66%); type: functional
A549 [15] = assay: Synergistic antiproliferative activity against human A549 cells assessed as cell death at 50 uM incubated for 72 hrs in presence of 12 uM cisplatin by MTT assay (reference value: 66%); type: functional
A549 [16] = assay: Synergistic antiproliferative activity against human A549 cells assessed as cell death at 100 uM incubated for 72 hrs in presence of 12 uM cisplatin by MTT assay (reference value: 66%); type: functional
A549 [17] = assay: Synergistic antiproliferative activity against human A549 cells assessed as combination index at 1.563 uM incubated for 72 hrs in presence of 6 uM cisplatin by Chou-Talalay method; type: functional
A549 [18] = assay: Synergistic antiproliferative activity against human A549 cells assessed as combination index at 3.125 uM incubated for 72 hrs in presence of 6 uM cisplatin by Chou-Talalay method; type: functional
A549 [19] = assay: Synergistic antiproliferative activity against human A549 cells assessed as combination index at 6.25 uM incubated for 72 hrs in presence of 6 uM cisplatin by Chou-Talalay method; type: functional
A549 [20] = assay: Synergistic antiproliferative activity against human A549 cells assessed as combination index at 12.5 uM incubated for 72 hrs in presence of 6 uM cisplatin by Chou-Talalay method; type: functional
A549 [21] = assay: Synergistic antiproliferative activity against human A549 cells assessed as combination index at 25 uM incubated for 72 hrs in presence of 6 uM cisplatin by Chou-Talalay method; type: functional
A549 [22] = assay: Synergistic antiproliferative activity against human A549 cells assessed as combination index at 50 uM incubated for 72 hrs in presence of 6 uM cisplatin by Chou-Talalay method; type: functional
A549 [23] = assay: Synergistic antiproliferative activity against human A549 cells assessed as combination index at 100 uM incubated for 72 hrs in presence of 6 uM cisplatin by Chou-Talalay method; type: functional
A549 [24] = assay: Synergistic antiproliferative activity against human A549 cells assessed as combination index at 1.563 uM incubated for 72 hrs in presence of 12 uM cisplatin by Chou-Talalay method; type: functional
A549 [25] = assay: Synergistic antiproliferative activity against human A549 cells assessed as combination index at 3.125 uM incubated for 72 hrs in presence of 12 uM cisplatin by Chou-Talalay method; type: functional
A549 [26] = assay: Synergistic antiproliferative activity against human A549 cells assessed as combination index at 6.25 uM incubated for 72 hrs in presence of 12 uM cisplatin by Chou-Talalay method; type: functional
A549 [27] = assay: Synergistic antiproliferative activity against human A549 cells assessed as combination index at 12.5 uM incubated for 72 hrs in presence of 12 uM cisplatin by Chou-Talalay method; type: functional
A549 [28] = assay: Synergistic antiproliferative activity against human A549 cells assessed as combination index at 25 uM incubated for 72 hrs in presence of 12 uM cisplatin by Chou-Talalay method; type: functional
A549 [29] = assay: Synergistic antiproliferative activity against human A549 cells assessed as reduction in cell growth at 50 uM incubated for 3 days in presence of 6 uM cisplatin and measured every 2 hrs by IncuCyte live-cell imaging assay; type: functional, cell-based; details: time 3.0 day

For `CC[C@H](C)[C@H](NC(C)=O)C(=O)N[C@H](C(=O)N[C@@H](CCC(=O)O)C(=O)N[C@@H](CC(C)C)C(=O)N[C@@H](CCC(=O)O)C(=O)N[C@]1(C)CCC/C=C\CCC[C@](C)(C(=O)N[C@@H](CC(C)C)C(=O)N[C@@H](CCCCN)C(=O)N[C@@H](CC(=O)O)C(=O)N[C@@H](CCC(=O)O)C(=O)N[C@@H](CCCCN)C(=O)N[C@@H](CCC(=O)O)C(N)=O)NC(=O)[C@H](CC(=O)O)NC(=O)[C@H](CC(C)C)NC(=O)[C@H](CC(=O)O)NC1=O)C(C)C` (Ac-IVELE[R5]DLD[R5]LKDEKE-NH2; staple (Z) 6-10), the Stability [1] was “Unstable”, the inhibition [2] was “Active” and the inhibition (Homo sapiens) was “Active”. For the same compound, the Activity (A549 [3]) was “Active”, the Activity (A549 [4]) was “Active” and the Activity (A549 [5]) was “Active”. The Activity (A549 [6]) was “Active”, the Activity (A549 [7]) was 4% and the hemolysis at 100 µM [8] was 0.3%. The Activity (A549 [9]) was 12%, the Activity (A549 [10]) was 37% and the Activity (A549 [11]) was 59%. It also gave an Activity (A549 [12]) of 64%, an Activity (A549 [13]) of 67% and an Activity (A549 [14]) of 71%. The Activity (A549 [15]) was 93%, the Activity (A549 [16]) was 100% and the CI (A549 [17]) was 0.89. The CI (A549 [18]) was 0.84, the CI (A549 [19]) was 0.67 and the CI (A549 [20]) was 0.57. For the same compound, the CI (A549 [21]) was 0.51, the CI (A549 [22]) was 0.42 and the CI (A549 [23]) was 0.42. It also gave a CI (A549 [24]) of 0.96, a CI (A549 [25]) of 0.82 and a CI (A549 [26]) of 0.57. The CI (A549 [27]) was 0.51, the CI (A549 [28]) was 0.35 and the Activity (A549 [29]) was “Active”.
